Measured values taken from paper PMC7179183, “Design of Biphenyl-Substituted Diarylpyrimidines with a Cyanomethyl Linker as HIV-1 NNRTIs via a Molecular Hybridization Strategy” (Molecules, 2020).
Like-named read-outs stand apart in the source and are kept apart here.

What was measured:
WT HIV-1 = settings: cited from earlier work
[1] = cited from earlier work
[2] = tested on: Y188L mutant HIV-1 strain; test: Anti-HIV-1 activity against Y188L mutant strain in MT-4 cells; assay type: cell-based; settings: Human immunodeficiency virus 1, MT4, read-out: EC50 Y188L
[3] = tested on: K103N + Y181C double RT mutant HIV-1 strain; test: Anti-HIV-1 activity against K103N + Y181C double mutant strain in MT-4 cells; assay type: cell-based; settings: Human immunodeficiency virus 1, MT4, read-out: EC50 K103N + Y181C
[4] = Cytotoxicity in uninfected MT-4 cells, MTT method; assay type: cell-based; settings: human; uninfected MT-4 cells; viability reduced by 50%; read-out: CC50
Protocol: (§1) The newly synthesized compounds were evaluated for their potency and cytotoxicity against the WT HIV-1 (strain IIIB) in MT-4 cells using the MTT method. The biological evaluation results are represented as EC50 values (anti-HIV-1 activity), CC50 values (cytotoxicity), and SI values (selectivity index, CC50/EC50 ratio).

[5] = tested on: K103N mutant HIV-1 strain; test: Anti-HIV-1 activity against K103N mutant strain in MT-4 cells; assay type: cell-based; settings: Human immunodeficiency virus 1, MT4, read-out: EC50 K103N
[6] = tested on: Y181C mutant HIV-1 strain; test: Anti-HIV-1 activity against Y181C mutant strain in MT-4 cells; assay type: cell-based; settings: Human immunodeficiency virus 1, MT4, read-out: EC50 Y181C
[7] = tested on: E138K mutant HIV-1 strain; test: Anti-HIV-1 activity against E138K mutant strain in MT-4 cells; assay type: cell-based; settings: Human immunodeficiency virus 1, MT4, read-out: EC50 E138K
[8] = tested on: L100I mutant HIV-1 strain; test: Anti-HIV-1 activity against L100I mutant strain in MT-4 cells; assay type: cell-based; settings: Human immunodeficiency virus 1, MT4, read-out: EC50 L100I
[9] = tested on: F227L + V106A double RT mutant HIV-1 strain; test: Anti-HIV-1 activity against F227L + V106A double mutant strain in MT-4 cells; assay type: cell-based; settings: Human immunodeficiency virus 1, MT4, read-out: EC50 F227L + V106A
WT HIV-1 (strain IIIB) = test: microbe, parasite or virus in culture; assay type: cell-based
Protocol: as §1

[10] = statement in the introduction, no reference given
[11] = Human immunodeficiency virus 1, IIIB, MT4, MT-4 cells, protection against virus-induced cytopathicity by 50%, mean of at least three experiments, read-out: EC50 HIV-1 IIIB

Row | Structure (SMILES) | EC50 (WT HIV-1; read-out: EC50 anti-HIV potency) [µM] | CC50 ([1]; lead compound) [µM] | EC50 (WT HIV-1; read-out: EC50 WT HIV-1) [µM] | EC50 [2] [µM] | EC50 [3] [µM] | CC50 [4] [µM] | EC50 [5] [µM] | EC50 [6] [µM] | CC50 [1, 10] [µM] | EC50 [7] [µM] | EC50 [8] [µM] | EC50 [9] [µM] | EC50 (WT HIV-1 (strain IIIB); Human immunodeficiency virus 1, MT4, read-out: EC50 HIV-1 IIIB) [µM] | EC50 (WT HIV-1 (strain IIIB); [11]) [µM]
1 | Cc1cc(C(C#N)c2ccccc2F)nc(Nc2ccc(C#N)cc2)n1 (centres unmarked) [Compound 1] | 0.0018 | – | – | – | – | – | – | – | – | – | – | – | – | –
2 | Cc1cc(-c2ccc(C#N)cc2)cc(C)c1Nc1ccnc(Nc2ccc(C#N)cc2)n1 [Compound 2] | – | 2.1 | 0.001 ± 0.0006 | – | – | – | – | – | – | – | – | – | – | –
3 | Cc1cc(C#N)cc(C)c1Oc1nc(Nc2ccc(C#N)cc2)nc(N)c1Br [ETR, etravirine, reference compound] | – | – | – | 0.017 ± 0.006 | 0.04 ± 0.01 | > 4.6 | 0.003 ± 0.001 | 0.017 ± 0.003 | ~6 | 0.008 ± 0.004 | 0.008 ± 0.002 | 0.014 ± 0.005 | 0.0045 ± 0.001 | –
4 | Cc1ccnc2c1NC(=O)c1cccnc1N2C1CC1 [NVP, nevirapine, reference compound] | – | – | – | ≥ 4.62 | > 15 | > 15 | 4.7 ± 0.63 | 6.07 ± 1.55 | – | 0.2 ± 0.15 | 0.98 ± 0.39 | ≥ 4.28 | – | 0.2 ± 0.1
5 | Cc1cc(/C=C/C#N)cc(C)c1Nc1ccnc(Nc2ccc(C#N)cc2)n1 [RPV, rilpivirine, reference compound] | – | – | – | 0.03 ± 0.009 | 0.009 ± 0.002 | 5.89 ± 0.31 | 0.001 ± 0.0002 | 0.003 ± 0.001 | ~6 | 0.003 ± 0.001 | 0.002 ± 0.001 | 0.044 ± 0.012 | – | 0.0016 ± 0.0003
